ChEMBL document CHEMBL3792355, “Novel pyrazole derivatives with oxa/thiadiazolyl, pyrazolyl moieties and pyrazolo[4,3-d]-pyrimidine derivatives as potential antimicrobial and anticancer agents” (Bioorg Med Chem Lett, 2016)
In brackets after ≈: the same amount, converted by molar mass.

How the values were obtained:
Escherichia coli [1] = assay: Antimicrobial activity against Escherichia coli ATCC 25922 at 1 mg/ml incubated for 24 hrs by cup diffusion assay; type: functional; settings: ATCC 25922, 24 h, read-out: DIZ
Pseudomonas aeruginosa [2] = assay: Antimicrobial activity against Pseudomonas aeruginosa ATCC 27853 at 1 mg/ml incubated for 24 hrs by cup diffusion assay; type: functional; settings: ATCC 27853, 24 h, read-out: DIZ
Lactococcus lactis [3] = assay: Antimicrobial activity against Streptococcus lactis ATCC 14591 at 1 mg/ml incubated for 24 hrs by cup diffusion assay; type: functional; settings: ATCC 14591, 24 h, read-out: DIZ
Staphylococcus aureus [4] = assay: Antimicrobial activity against Staphylococcus aureus ATCC 25923 at 1 mg/ml incubated for 24 hrs by cup diffusion assay; type: functional; settings: ATCC 25923, 24 h, read-out: DIZ
Candida albicans [5] = assay: Antimicrobial activity against Candida albicans ATCC 14154 at 1 mg/ml incubated for 24 hrs by cup diffusion assay; type: functional; settings: for zone of inhibition at 1000 µg/mL: ATCC 14154, 24 h, read-out: DIZ
Aspergillus flavus [6] = assay: Antimicrobial activity against Aspergillus flavus ATCC 23554 at 1 mg/ml incubated for 24 hrs by cup diffusion assay; type: functional; settings: for zone of inhibition at 1000 µg/mL: ATCC 23554, 24 h, read-out: DIZ
Escherichia coli [7] = assay: Antimicrobial activity against Escherichia coli ATCC 25922 incubated for 24 hrs by CLSI/NCCLS protocol based method; type: functional; settings: ATCC 25922, 24 h
Pseudomonas aeruginosa [8] = assay: Antimicrobial activity against Pseudomonas aeruginosa ATCC 27853 incubated for 24 hrs by CLSI/NCCLS protocol based method; type: functional; settings: ATCC 27853, 24 h
Lactococcus lactis [9] = assay: Antimicrobial activity against Streptococcus lactis ATCC 14591 incubated for 24 hrs by CLSI/NCCLS protocol based method; type: functional; settings: ATCC 14591, 24 h
Staphylococcus aureus [10] = assay: Antimicrobial activity against Staphylococcus aureus ATCC 25923 incubated for 24 hrs by CLSI/NCCLS protocol based method; type: functional; settings: ATCC 25923, 24 h
Candida albicans [11] = assay: Antimicrobial activity against Candida albicans ATCC 14154 incubated for 24 hrs by CLSI/NCCLS protocol based method; type: functional
Aspergillus flavus [12] = assay: Antimicrobial activity against Aspergillus flavus ATCC 23554 incubated for 24 hrs by CLSI/NCCLS protocol based method; type: functional
MCF7 = assay: Growth inhibition of human MCF7 cells incubated for 48 hrs by MTT assay; type: functional, cell-based; settings: MCF7, 48 h
HT-29 = assay: cells; settings: Homo sapiens, HT-29, 48 h
HepG2 = assay: cells; settings: Homo sapiens, HepG2, 48 h

Molecule | zone of inhibition at 1000 µg/mL (Escherichia coli [1]) | zone of inhibition at 1000 µg/mL (Pseudomonas aeruginosa [2]) | zone of inhibition at 1000 µg/mL (Lactococcus lactis [3]) | zone of inhibition at 1000 µg/mL (Staphylococcus aureus [4]) | zone of inhibition at 1000 µg/mL (Candida albicans [5]) | zone of inhibition at 1000 µg/mL (Aspergillus flavus [6]) | MIC (Escherichia coli [7]) | MIC (Pseudomonas aeruginosa [8]) | MIC (Lactococcus lactis [9]) | MIC (Staphylococcus aureus [10]) | MIC (Candida albicans [11]; ATCC 14154, 24 h) | MIC (Aspergillus flavus [12]; ATCC 23554, 24 h) | IC50 (MCF7) | IC50 (HT-29) | IC50 (HepG2) | inhibition zone (IZ) (Candida albicans [5]) | inhibition zone (IZ) (Aspergillus flavus [6]) | MIC (Candida albicans [11]) | MIC (Aspergillus flavus [12])
NC(=S)NNC(=O)c1[nH]nc(-c2ccc(Cl)cc2)c1N | 22 mm | 16 mm | 30 mm | 34 mm | 20 mm | 25 mm | 25 µg/mL (≈ 80.4 µM) | 40 µg/mL (≈ 129 µM) | 35 µg/mL (≈ 113 µM) | 30 µg/mL (≈ 96.5 µM) | 50 µg/mL (≈ 161 µM) | 45 µg/mL (≈ 145 µM) | 4350 nM | 5590 nM | 4060 nM |  |  |  | 
NYSTATIN |  |  |  |  |  |  |  |  |  |  |  |  |  |  |  | 25 mm | 30 mm | 20 µg/mL | 25 µg/mL
Cc1nc2c(-c3ccc(Cl)cc3)n[nH]c2c2nnnn12 | 10 mm | 8 mm | 20 mm | 18 mm | 22 mm | 26 mm | 10 µg/mL (≈ 35 µM) | 15 µg/mL (≈ 52.5 µM) | 10 µg/mL (≈ 35 µM) | 20 µg/mL (≈ 70 µM) | 22 µg/mL (≈ 77 µM) |  | 130 nM | 290 nM | 360 nM |  |  |  | 
CO/N=C(\C(=O)N[C@@H]1C(=O)N2C(C(=O)O)=C(COC(C)=O)CS[C@H]12)c1csc(N)n1 [CEFOTAXIME] | 26 mm | 18 mm | 30 mm | 31 mm |  |  | 13 µg/mL (≈ 28.5 µM) | 10 µg/mL (≈ 22 µM) | 12 µg/mL (≈ 26.3 µM) | 15 µg/mL (≈ 32.9 µM) |  |  |  |  |  |  |  |  | 
CC1=NN(C(=O)c2[nH]nc(-c3ccc(Cl)cc3)c2N)C(=O)C1 | 22 mm | 20 mm | 26 mm | 32 mm | 18 mm | 35 mm | 25 µg/mL (≈ 78.7 µM) | 20 µg/mL (≈ 62.9 µM) | 20 µg/mL (≈ 62.9 µM) | 30 µg/mL (≈ 94.4 µM) | 35 µg/mL (≈ 110 µM) | 40 µg/mL (≈ 126 µM) | 2540 nM | 2780 nM | 2530 nM |  |  |  | 
Cc1cc(C)n(C(=O)c2[nH]nc(-c3ccc(Cl)cc3)c2N)n1 | 22 mm | 20 mm | 30 mm | 32 mm | 18 mm | 26 mm | 20 µg/mL (≈ 63.3 µM) | 15 µg/mL (≈ 47.5 µM) | 15 µg/mL (≈ 47.5 µM) | 25 µg/mL (≈ 79.2 µM) |  |  | 1450 nM | 1450 nM | 1620 nM |  |  |  | 
Nn1c(=S)[nH]c2c(-c3ccc(Cl)cc3)n[nH]c2c1=O | 8 mm | 10 mm | 15 mm | 20 mm | 15 mm | 25 mm | 20 µg/mL (≈ 68.1 µM) | 15 µg/mL (≈ 51.1 µM) | 20 µg/mL (≈ 68.1 µM) | 20 µg/mL (≈ 68.1 µM) | 40 µg/mL (≈ 136 µM) | 40 µg/mL (≈ 136 µM) | 840 nM | 1330 nM | 1550 nM |  |  |  | 
Cc1csc(NNC(=O)c2[nH]nc(-c3ccc(Cl)cc3)c2N)n1 | 16 mm | 12 mm | 22 mm | 28 mm | 26 mm | 28 mm | 20 µg/mL (≈ 57.3 µM) | 15 µg/mL (≈ 43 µM) | 10 µg/mL (≈ 28.7 µM) | 15 µg/mL (≈ 43 µM) | 40 µg/mL (≈ 115 µM) | 45 µg/mL (≈ 129 µM) | 220 nM | 420 nM | 560 nM |  |  |  | 
Cc1nc(Cl)c2[nH]nc(-c3ccc(Cl)cc3)c2n1 | 12 mm | 10 mm | 15 mm | 18 mm | 22 mm | 25 mm | 50 µg/mL (≈ 179 µM) | 35 µg/mL (≈ 125 µM) | 35 µg/mL (≈ 125 µM) | 40 µg/mL (≈ 143 µM) | 22 µg/mL (≈ 78.8 µM) |  | 1770 nM | 1520 nM | 1620 nM |  |  |  | 
Cc1nn(C(=O)c2[nH]nc(-c3ccc(Cl)cc3)c2N)c(C)c1Cl | 15 mm | 13 mm | 16 mm | 15 mm | 16 mm | 20 mm | 15 µg/mL (≈ 42.8 µM) | 10 µg/mL (≈ 28.6 µM) | 5 µg/mL (≈ 14.3 µM) | 10 µg/mL (≈ 28.6 µM) | 45 µg/mL (≈ 128 µM) | 50 µg/mL (≈ 143 µM) | 780 nM | 1100 nM | 970 nM |  |  |  | 
